Experimental data as given in the NIST ThermoML archive (doi:10.1016/j.jct.2015.01.004).
Several values for one entry are separate records, joined by “and”; a condition that tells them apart may be missing. Equal values may be shown once.

Experiment: molar heat capacity at constant pressure; xn = mol fraction of the nth substance listed
Settings: 100 kPa

[Si] [silicon] + [Li]
Settings	molar heat capacity at constant pressure
12.56 K, Crystal of intercomponent compound 2, relaxation calorimeter, x2 = 0.804	0.0482 J/K/mol and 0.0474 J/K/mol
13.23 K, Crystal of intercomponent compound 1, relaxation calorimetry, x2 = 0.81	0.0671 J/K/mol
13.23 K, Crystal of intercomponent compound 2, relaxation calorimeter, x2 = 0.804	0.0553 J/K/mol
13.24 K, Crystal of intercomponent compound 2, relaxation calorimeter, x2 = 0.804	0.0547 J/K/mol
13.94 K, Crystal of intercomponent compound 1, relaxation calorimetry, x2 = 0.81	0.0741 J/K/mol
13.94 K, Crystal of intercomponent compound 2, relaxation calorimeter, x2 = 0.804	0.0639 J/K/mol
13.95 K, Crystal of intercomponent compound 2, relaxation calorimeter, x2 = 0.804	0.0628 J/K/mol
14.69 K, Crystal of intercomponent compound 1, relaxation calorimetry, x2 = 0.81	0.083 J/K/mol
14.69 K, Crystal of intercomponent compound 2, relaxation calorimeter, x2 = 0.804	0.0753 J/K/mol and 0.0743 J/K/mol
15 K, Crystal of intercomponent compound 1, relaxation calorimetry + DSC, x2 = 0.81	0.0895 J/K/mol
15 K, Crystal of intercomponent compound 2, relaxation calorimetry + DSC, x2 = 0.804	0.0803 J/K/mol
15.47 K, Crystal of intercomponent compound 1, relaxation calorimetry, x2 = 0.81	0.094 J/K/mol
15.47 K, Crystal of intercomponent compound 2, relaxation calorimeter, x2 = 0.804	0.0889 J/K/mol
15.48 K, Crystal of intercomponent compound 2, relaxation calorimeter, x2 = 0.804	0.0879 J/K/mol
16.3 K, Crystal of intercomponent compound 1, relaxation calorimetry, x2 = 0.81	0.1071 J/K/mol
16.3 K, Crystal of intercomponent compound 2, relaxation calorimeter, x2 = 0.804	0.1049 J/K/mol
16.31 K, Crystal of intercomponent compound 2, relaxation calorimeter, x2 = 0.804	0.1039 J/K/mol
17.17 K, Crystal of intercomponent compound 1, relaxation calorimetry, x2 = 0.81	0.1224 J/K/mol
17.18 K, Crystal of intercomponent compound 2, relaxation calorimeter, x2 = 0.804	0.1233 J/K/mol and 0.1231 J/K/mol
18.09 K, Crystal of intercomponent compound 1, relaxation calorimetry, x2 = 0.81	0.1403 J/K/mol
18.09 K, Crystal of intercomponent compound 2, relaxation calorimeter, x2 = 0.804	0.1454 J/K/mol
18.1 K, Crystal of intercomponent compound 2, relaxation calorimeter, x2 = 0.804	0.1461 J/K/mol
19.06 K, Crystal of intercomponent compound 1, relaxation calorimetry, x2 = 0.81	0.1618 J/K/mol
19.07 K, Crystal of intercomponent compound 2, relaxation calorimeter, x2 = 0.804	0.1725 J/K/mol and 0.1731 J/K/mol
20 K, Crystal of intercomponent compound 1, relaxation calorimetry + DSC, x2 = 0.81	0.184 J/K/mol
20 K, Crystal of intercomponent compound 2, relaxation calorimetry + DSC, x2 = 0.804	0.201 J/K/mol
20.09 K, Crystal of intercomponent compound 1, relaxation calorimetry, x2 = 0.81	0.187 J/K/mol
20.09 K, Crystal of intercomponent compound 2, relaxation calorimeter, x2 = 0.804	0.205 J/K/mol
20.1 K, Crystal of intercomponent compound 2, relaxation calorimeter, x2 = 0.804	0.203 J/K/mol
21.16 K, Crystal of intercomponent compound 1, relaxation calorimetry, x2 = 0.81	0.219 J/K/mol
21.16 K, Crystal of intercomponent compound 2, relaxation calorimeter, x2 = 0.804	0.24 J/K/mol
21.17 K, Crystal of intercomponent compound 2, relaxation calorimeter, x2 = 0.804	0.242 J/K/mol
22.28 K, Crystal of intercomponent compound 1, relaxation calorimetry, x2 = 0.81	0.255 J/K/mol
22.3 K, Crystal of intercomponent compound 2, relaxation calorimeter, x2 = 0.804	0.283 J/K/mol and 0.286 J/K/mol
23.49 K, Crystal of intercomponent compound 2, relaxation calorimeter, x2 = 0.804	0.333 J/K/mol and 0.337 J/K/mol
23.51 K, Crystal of intercomponent compound 1, relaxation calorimetry, x2 = 0.81	0.297 J/K/mol
24.74 K, Crystal of intercomponent compound 1, relaxation calorimetry, x2 = 0.81	0.331 J/K/mol
24.75 K, Crystal of intercomponent compound 2, relaxation calorimeter, x2 = 0.804	0.391 J/K/mol and 0.396 J/K/mol
25 K, Crystal of intercomponent compound 1, relaxation calorimetry + DSC, x2 = 0.81	0.347 J/K/mol
25 K, Crystal of intercomponent compound 2, relaxation calorimetry + DSC, x2 = 0.804	0.403 J/K/mol
26.07 K, Crystal of intercomponent compound 2, relaxation calorimeter, x2 = 0.804	0.458 J/K/mol and 0.454 J/K/mol
26.08 K, Crystal of intercomponent compound 1, relaxation calorimetry, x2 = 0.81	0.39 J/K/mol
27.47 K, Crystal of intercomponent compound 2, relaxation calorimeter, x2 = 0.804	0.534 J/K/mol
27.48 K, Crystal of intercomponent compound 1, relaxation calorimetry, x2 = 0.81	0.457 J/K/mol
27.48 K, Crystal of intercomponent compound 2, relaxation calorimeter, x2 = 0.804	0.531 J/K/mol
28.94 K, Crystal of intercomponent compound 2, relaxation calorimeter, x2 = 0.804	0.623 J/K/mol
28.95 K, Crystal of intercomponent compound 1, relaxation calorimetry, x2 = 0.81	0.534 J/K/mol
28.95 K, Crystal of intercomponent compound 2, relaxation calorimeter, x2 = 0.804	0.619 J/K/mol
30 K, Crystal of intercomponent compound 1, relaxation calorimetry + DSC, x2 = 0.81	0.596 J/K/mol
30 K, Crystal of intercomponent compound 2, relaxation calorimetry + DSC, x2 = 0.804	0.689 J/K/mol
30.48 K, Crystal of intercomponent compound 2, relaxation calorimeter, x2 = 0.804	0.723 J/K/mol
30.49 K, Crystal of intercomponent compound 1, relaxation calorimetry, x2 = 0.81	0.625 J/K/mol
30.5 K, Crystal of intercomponent compound 2, relaxation calorimeter, x2 = 0.804	0.718 J/K/mol
32.11 K, Crystal of intercomponent compound 2, relaxation calorimeter, x2 = 0.804	0.835 J/K/mol
32.12 K, Crystal of intercomponent compound 1, relaxation calorimetry, x2 = 0.81	0.728 J/K/mol
32.12 K, Crystal of intercomponent compound 2, relaxation calorimeter, x2 = 0.804	0.832 J/K/mol
33.83 K, Crystal of intercomponent compound 2, relaxation calorimeter, x2 = 0.804	0.964 J/K/mol
33.84 K, Crystal of intercomponent compound 1, relaxation calorimetry, x2 = 0.81	0.848 J/K/mol
33.84 K, Crystal of intercomponent compound 2, relaxation calorimeter, x2 = 0.804	0.961 J/K/mol
35 K, Crystal of intercomponent compound 1, relaxation calorimetry + DSC, x2 = 0.81	0.934 J/K/mol
35 K, Crystal of intercomponent compound 2, relaxation calorimetry + DSC, x2 = 0.804	1.056 J/K/mol
35.64 K, Crystal of intercomponent compound 2, relaxation calorimeter, x2 = 0.804	1.113 J/K/mol
35.65 K, Crystal of intercomponent compound 2, relaxation calorimeter, x2 = 0.804	1.109 J/K/mol
35.66 K, Crystal of intercomponent compound 1, relaxation calorimetry, x2 = 0.81	0.987 J/K/mol
37.54 K, Crystal of intercomponent compound 2, relaxation calorimeter, x2 = 0.804	1.278 J/K/mol
37.56 K, Crystal of intercomponent compound 1, relaxation calorimetry, x2 = 0.81	1.143 J/K/mol
37.56 K, Crystal of intercomponent compound 2, relaxation calorimeter, x2 = 0.804	1.272 J/K/mol
39.55 K, Crystal of intercomponent compound 2, relaxation calorimeter, x2 = 0.804	1.458 J/K/mol
39.56 K, Crystal of intercomponent compound 1, relaxation calorimetry, x2 = 0.81	1.315 J/K/mol
39.57 K, Crystal of intercomponent compound 2, relaxation calorimeter, x2 = 0.804	1.455 J/K/mol
40 K, Crystal of intercomponent compound 1, relaxation calorimetry + DSC, x2 = 0.81	1.35 J/K/mol
40 K, Crystal of intercomponent compound 2, relaxation calorimetry + DSC, x2 = 0.804	1.5 J/K/mol
41.66 K, Crystal of intercomponent compound 2, relaxation calorimeter, x2 = 0.804	1.664 J/K/mol
41.67 K, Crystal of intercomponent compound 1, relaxation calorimetry, x2 = 0.81	1.513 J/K/mol
41.68 K, Crystal of intercomponent compound 2, relaxation calorimeter, x2 = 0.804	1.659 J/K/mol
43.88 K, Crystal of intercomponent compound 1, relaxation calorimetry, x2 = 0.81	1.731 J/K/mol
43.89 K, Crystal of intercomponent compound 2, relaxation calorimeter, x2 = 0.804	1.888 J/K/mol
43.9 K, Crystal of intercomponent compound 2, relaxation calorimeter, x2 = 0.804	1.888 J/K/mol
45 K, Crystal of intercomponent compound 1, relaxation calorimetry + DSC, x2 = 0.81	1.85 J/K/mol
45 K, Crystal of intercomponent compound 2, relaxation calorimetry + DSC, x2 = 0.804	2.01 J/K/mol
46.22 K, Crystal of intercomponent compound 1, relaxation calorimetry, x2 = 0.81	1.98 J/K/mol
